According to US20250000843A1, “LIGNAN-INSPIRED COMPOUNDS, METHODS OF MAKING, AND USING THEREOF” (IOWAIBO, INC., priority 2023, published 2025):

What was measured:
[1] = tested on: PC3, a human prostate cancer cell line; assay: MTT toxicity assay in PC3 prostate cancer cells; assay type: cell-based
Protocol: Toxicity of the dibenzyl butyl lactone derivative (3-[(3,4-dimethoxyphenyl)cyclopentyl], 4-[(3-hydroxyphenol)methyl]oxolan-2-one) in breast cancer cells was evaluated using MTT assay. The MTT toxicity test is a colorimetric assay to measure cells' metabolic activity by serving as a substrate of cellular enzymes that reduce the tetrazolium orange dye, MTT (3-(4,5-Dimethylthiazol-2-yl)-2,5-diphenyltetrazolium bromide) to its insoluble, formazan, giving a purple color. The rate of conversion is directly proportional to cells' mitochondrial metabolic activity via NAD (P) H-dependent cellular oxidoreductase enzymes and serves as a surrogate marker of cell viability.
Cells previously expanded were seeded in 96 well plates at 1.9×10^5 and 9.6×10^4 cells/plate for 24- and 72-hours treatment respectively. This concentration is known to show the best window for the MTT assay, with better sensitivity and low variability.
5 mg of powdered enterolactone, dibenzyl butyl lactone derivative enantiomer A, and dibenzyl butyl lactone derivative enantiomer B were dissolved in 500 μl of DMSO at room temperature. Eight-point curves, ⅓ dilutions (highest concentration 125 μM), were prepared.
Twenty-four hours following the seeding process, the cells were washed once with phosphate buffered saline (PBS) and treated with the respective compounds in cell culture media. Each condition was tested in triplicates. For positive and negative controls, 8 mM methyl methane sulfonate (MMS) and DMSO 100% were used respectively.
Following compound addition, the plates were incubated for 24 and 72 hours. After the treatment period, cells were washed twice with PBS and media was replaced with MTT reagent at 0.5 mg/ml in Dulbecco's modified Eagle medium (DMEM) without phenol red. The plates were gently shaken and incubated for 4 hours. After the incubation the medium was removed and replaced by DMSO. The plates were gently shaken to solubilize the formazan crystals. Absorbance was measured using an Envision multiplate reader at a wavelength of 570 nm.
Toxicity of the dibenzyl butyl lactone derivative (3-[(3,4-dimethoxyphenyl)cyclopentyl], 4-[(3-hydroxyphenol)methyl]oxolan-2-one) in prostate cancer cells was evaluated using MTT assay. The same methods as those used in Example 2 were employed, except the cell line used was PC3, a human prostate cancer cell line, and cell cultures were established in Kaighn's modification of Ham's […] medium.
MTT assay results are shown in Tables 16-21 and expressed as the percentage of cell death after treatment.

telomerase = telomerase (Homo sapiens, UniProt O14746); assay: Q-TRAP telomerase activity in MCF7 breast cancer cells; assay type: cell-based; design: allow the enzymatic addition of telomeric DNA repeats by endogenous telomerase; endogenous in cells
Sequence of telomerase (O14746 whole entry): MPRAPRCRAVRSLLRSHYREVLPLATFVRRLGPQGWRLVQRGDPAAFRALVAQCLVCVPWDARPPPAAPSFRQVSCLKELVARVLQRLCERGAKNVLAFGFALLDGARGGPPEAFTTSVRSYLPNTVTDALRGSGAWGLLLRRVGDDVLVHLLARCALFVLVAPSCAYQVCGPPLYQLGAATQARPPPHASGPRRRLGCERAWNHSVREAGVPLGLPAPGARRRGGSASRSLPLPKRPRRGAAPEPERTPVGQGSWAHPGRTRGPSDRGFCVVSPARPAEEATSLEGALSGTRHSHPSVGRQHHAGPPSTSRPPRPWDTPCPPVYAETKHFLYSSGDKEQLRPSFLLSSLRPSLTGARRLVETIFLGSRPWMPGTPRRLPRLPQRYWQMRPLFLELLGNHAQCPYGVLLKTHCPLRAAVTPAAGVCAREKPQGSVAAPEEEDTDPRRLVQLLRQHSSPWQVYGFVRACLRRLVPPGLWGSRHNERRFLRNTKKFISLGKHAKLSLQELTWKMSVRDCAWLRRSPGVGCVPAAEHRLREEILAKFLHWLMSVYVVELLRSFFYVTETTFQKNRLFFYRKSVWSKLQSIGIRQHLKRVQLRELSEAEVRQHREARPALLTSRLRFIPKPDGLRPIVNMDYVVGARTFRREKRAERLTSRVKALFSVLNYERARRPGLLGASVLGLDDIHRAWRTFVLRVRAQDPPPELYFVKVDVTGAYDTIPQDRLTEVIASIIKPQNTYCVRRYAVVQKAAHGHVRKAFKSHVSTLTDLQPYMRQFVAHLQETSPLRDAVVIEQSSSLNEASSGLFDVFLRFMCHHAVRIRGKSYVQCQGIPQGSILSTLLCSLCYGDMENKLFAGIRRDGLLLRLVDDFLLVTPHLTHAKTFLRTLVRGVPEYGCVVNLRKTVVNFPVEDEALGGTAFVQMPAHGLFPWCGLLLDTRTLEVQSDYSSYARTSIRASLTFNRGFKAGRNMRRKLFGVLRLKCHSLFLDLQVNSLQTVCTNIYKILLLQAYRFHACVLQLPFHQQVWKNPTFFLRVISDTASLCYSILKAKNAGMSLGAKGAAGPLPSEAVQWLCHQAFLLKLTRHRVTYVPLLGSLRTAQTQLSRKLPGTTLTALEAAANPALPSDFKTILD
Sequence of telomerase (O60832 whole entry partner): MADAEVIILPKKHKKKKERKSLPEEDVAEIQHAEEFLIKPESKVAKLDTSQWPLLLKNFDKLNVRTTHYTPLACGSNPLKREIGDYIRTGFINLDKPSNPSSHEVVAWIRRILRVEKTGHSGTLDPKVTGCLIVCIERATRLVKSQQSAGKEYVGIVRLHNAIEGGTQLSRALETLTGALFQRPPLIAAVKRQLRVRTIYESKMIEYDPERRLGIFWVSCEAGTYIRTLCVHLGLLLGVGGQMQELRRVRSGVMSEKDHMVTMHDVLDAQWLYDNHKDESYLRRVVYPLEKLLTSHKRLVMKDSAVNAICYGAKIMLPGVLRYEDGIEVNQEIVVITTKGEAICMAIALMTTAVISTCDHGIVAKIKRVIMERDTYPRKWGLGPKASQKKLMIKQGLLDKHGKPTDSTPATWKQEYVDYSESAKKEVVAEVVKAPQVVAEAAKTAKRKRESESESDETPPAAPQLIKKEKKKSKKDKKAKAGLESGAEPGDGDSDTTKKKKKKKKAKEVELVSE
Sequence of telomerase (Q9NPE3 whole entry partner): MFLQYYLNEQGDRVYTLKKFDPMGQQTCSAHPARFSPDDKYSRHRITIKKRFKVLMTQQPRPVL
Sequence of telomerase (Q9NX24 whole entry partner): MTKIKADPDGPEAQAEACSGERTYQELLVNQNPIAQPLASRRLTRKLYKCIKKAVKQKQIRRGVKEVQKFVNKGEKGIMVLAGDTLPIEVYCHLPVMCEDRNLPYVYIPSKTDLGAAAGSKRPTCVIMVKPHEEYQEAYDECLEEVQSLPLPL
Sequence of telomerase (Q9NY12 whole entry partner): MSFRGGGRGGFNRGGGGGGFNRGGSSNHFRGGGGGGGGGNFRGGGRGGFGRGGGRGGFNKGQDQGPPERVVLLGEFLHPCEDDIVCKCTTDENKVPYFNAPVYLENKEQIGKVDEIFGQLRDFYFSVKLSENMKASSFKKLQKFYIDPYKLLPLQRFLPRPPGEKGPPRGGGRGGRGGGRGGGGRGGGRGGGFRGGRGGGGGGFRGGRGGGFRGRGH
Sequence of telomerase (Q9BUR4 whole entry partner): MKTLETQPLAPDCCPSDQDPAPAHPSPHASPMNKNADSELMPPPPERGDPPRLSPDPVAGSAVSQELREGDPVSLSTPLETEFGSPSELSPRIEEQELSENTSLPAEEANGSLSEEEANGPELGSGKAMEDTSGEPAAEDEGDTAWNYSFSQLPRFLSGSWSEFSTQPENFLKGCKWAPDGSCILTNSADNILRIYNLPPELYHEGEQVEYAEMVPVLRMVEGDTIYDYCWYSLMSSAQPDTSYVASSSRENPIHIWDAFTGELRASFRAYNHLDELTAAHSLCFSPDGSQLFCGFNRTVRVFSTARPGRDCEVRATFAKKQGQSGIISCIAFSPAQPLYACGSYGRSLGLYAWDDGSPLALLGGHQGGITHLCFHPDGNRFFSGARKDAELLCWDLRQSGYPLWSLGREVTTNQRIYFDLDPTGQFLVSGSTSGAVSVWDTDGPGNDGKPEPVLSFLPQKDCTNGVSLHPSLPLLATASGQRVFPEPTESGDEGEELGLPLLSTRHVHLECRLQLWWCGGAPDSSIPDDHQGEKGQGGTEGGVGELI

O=C1OCC(Cc2ccc3c(c2)OCO3)/C1=C\c1cccc(O)c1 (single isomer, unassigned) [Enantiomer A, 3-[(3,4-dimethoxyphenyl)cyclopentyl], 4-[(3-hydroxyphenol)methyl]oxolan-2-one]
Cell death #1 (%) ([1]; PC3, 24 hours, 0.06 μM): −10.92%
Cell death #2 (%) ([1]; PC3, 24 hours, 0.06 μM): −13.82%
Cell death #3 (%) ([1]; PC3, 24 hours, 0.06 μM): −11.02%
Cell death (%) MEAN ([1]; PC3, 24 hours, 0.06 μM): −11.92%
Cell death #1 (%) ([1]; PC3, 24 hours, 0.17 μM): −27.17%
Cell death #2 (%) ([1]; PC3, 24 hours, 0.17 μM): −17.50%
Cell death #3 (%) ([1]; PC3, 24 hours, 0.17 μM): −8.79%
Cell death (%) MEAN ([1]; PC3, 24 hours, 0.17 μM): −17.82%
Cell death #1 (%) ([1]; PC3, 24 hours, 0.51 μM): −2.70%
Cell death #2 (%) ([1]; PC3, 24 hours, 0.51 μM): −15.18%
Cell death #3 (%) ([1]; PC3, 24 hours, 0.51 μM): −10.44%
Cell death (%) MEAN ([1]; PC3, 24 hours, 0.51 μM): −9.44%
Cell death #1 (%) ([1]; PC3, 24 hours, 1.54 μM): −29.20%
Cell death #2 (%) ([1]; PC3, 24 hours, 1.54 μM): −24.37%
Cell death #3 (%) ([1]; PC3, 24 hours, 1.54 μM): −23.78%
Cell death (%) MEAN ([1]; PC3, 24 hours, 1.54 μM): −25.78%
Cell death #1 (%) ([1]; PC3, 24 hours, 4.63 μM): −17.98%
Cell death #2 (%) ([1]; PC3, 24 hours, 4.63 μM): −21.37%
Cell death #3 (%) ([1]; PC3, 24 hours, 4.63 μM): −15.27%
Cell death (%) MEAN ([1]; PC3, 24 hours, 4.63 μM): −18.21%
Cell death #1 (%) ([1]; PC3, 24 hours, 13.89 μM): −26.49%
Cell death #2 (%) ([1]; PC3, 24 hours, 13.89 μM): −20.40%
Cell death #3 (%) ([1]; PC3, 24 hours, 13.89 μM): −18.56%
Cell death (%) MEAN ([1]; PC3, 24 hours, 13.89 μM): −21.82%
Cell death #1 (%) ([1]; PC3, 24 hours, 41.67 μM): −6.18%
Cell death #2 (%) ([1]; PC3, 24 hours, 41.67 μM): −0.76%
Cell death #3 (%) ([1]; PC3, 24 hours, 41.67 μM): −12.85%
Cell death (%) MEAN ([1]; PC3, 24 hours, 41.67 μM): −6.60%
Cell death #1 (%) ([1]; PC3, 24 hours, 125.00 μM): 32.42%
Cell death #2 (%) ([1]; PC3, 24 hours, 125.00 μM): 28.74%
Cell death #3 (%) ([1]; PC3, 24 hours, 125.00 μM): 33.00%
Cell death (%) MEAN ([1]; PC3, 24 hours, 125.00 μM): 31.39%
Cell death #1 (%) ([1]; PC3, 72 hours, 0.06 μM): −39.43%
Cell death #2 (%) ([1]; PC3, 72 hours, 0.06 μM): −40.43%
Cell death #3 (%) ([1]; PC3, 72 hours, 0.06 μM): −33.95%
Cell death (%) MEAN ([1]; PC3, 72 hours, 0.06 μM): −37.94%
Cell death #1 (%) ([1]; PC3, 72 hours, 0.17 μM): −43.42%
Cell death #2 (%) ([1]; PC3, 72 hours, 0.17 μM): −40.55%
Cell death #3 (%) ([1]; PC3, 72 hours, 0.17 μM): −38.31%
Cell death (%) MEAN ([1]; PC3, 72 hours, 0.17 μM): −40.76%
Cell death #1 (%) ([1]; PC3, 72 hours, 0.51 μM): −63.73%
Cell death #2 (%) ([1]; PC3, 72 hours, 0.51 μM): −69.58%
Cell death #3 (%) ([1]; PC3, 72 hours, 0.51 μM): −63.23%
Cell death (%) MEAN ([1]; PC3, 72 hours, 0.51 μM): −65.51%
Cell death #1 (%) ([1]; PC3, 72 hours, 1.54 μM): −46.91%
Cell death #2 (%) ([1]; PC3, 72 hours, 1.54 μM): −52.39%
Cell death #3 (%) ([1]; PC3, 72 hours, 1.54 μM): −53.51%
Cell death (%) MEAN ([1]; PC3, 72 hours, 1.54 μM): −50.94%
Cell death #1 (%) ([1]; PC3, 72 hours, 4.63 μM): −76.31%
Cell death #2 (%) ([1]; PC3, 72 hours, 4.63 μM): −66.59%
Cell death #3 (%) ([1]; PC3, 72 hours, 4.63 μM): −54.63%
Cell death (%) MEAN ([1]; PC3, 72 hours, 4.63 μM): −65.85%
Cell death #1 (%) ([1]; PC3, 72 hours, 13.89 μM): −45.54%
Cell death #2 (%) ([1]; PC3, 72 hours, 13.89 μM): −47.91%
Cell death #3 (%) ([1]; PC3, 72 hours, 13.89 μM): −30.21%
Cell death (%) MEAN ([1]; PC3, 72 hours, 13.89 μM): −41.22%
Cell death #1 (%) ([1]; PC3, 72 hours, 41.67 μM): 9.78%
Cell death #2 (%) ([1]; PC3, 72 hours, 41.67 μM): 23.24%
Cell death #3 (%) ([1]; PC3, 72 hours, 41.67 μM): 14.02%
Cell death (%) MEAN ([1]; PC3, 72 hours, 41.67 μM): 15.68%
Cell death #1 (%) ([1]; PC3, 72 hours, 125.00 μM): 75.56%
Cell death #2 (%) ([1]; PC3, 72 hours, 125.00 μM): 74.94%
Cell death #3 (%) ([1]; PC3, 72 hours, 125.00 μM): 74.82%
Cell death (%) MEAN ([1]; PC3, 72 hours, 125.00 μM): 75.11%
prostate cancer cell death as compared to enterolactone ([1]; PC3, at higher concentrations, 24 hours and 72 hours post-treatment): increased prostate cancer cell death as compared to enterolactone
Telomerase Activity RTA (%) (telomerase; MCF7, 2.5 μM, 24 Hours): 115.47%
Telomerase Activity RTA (%) (telomerase; MCF7, 2.5 μM, 48 Hours): 49.73%
Telomerase Activity RTA (%) (telomerase; MCF7, 2.5 μM, 72 Hours): 15.70%
Telomerase Activity RTA (%) (telomerase; MCF7, 5 μM, 24 Hours): 35.54%
Telomerase Activity RTA (%) (telomerase; MCF7, 5 μM, 48 Hours): 29.14%
Telomerase Activity RTA (%) (telomerase; MCF7, 5 μM, 72 Hours): 14.77%
Telomerase Activity RTA (%) (telomerase; MCF7, 10 μM, 24 Hours): 40.24%
Telomerase Activity RTA (%) (telomerase; MCF7, 10 μM, 48 Hours): 28.47%
Telomerase Activity RTA (%) (telomerase; MCF7, 10 μM, 72 Hours): 15.87%
Telomerase Activity RTA (%) (telomerase; MCF7, 20 μM, 24 Hours): 25.50%
Telomerase Activity RTA (%) (telomerase; MCF7, 20 μM, 48 Hours): 41.20%
Telomerase Activity RTA (%) (telomerase; MCF7, 20 μM, 72 Hours): 5.82%
Telomerase Activity RTA (%) (telomerase; MCF7, 40 μM, 24 Hours): 62.53%
Telomerase Activity RTA (%) (telomerase; MCF7, 40 μM, 48 Hours): 36.82%
Telomerase Activity RTA (%) (telomerase; MCF7, 40 μM, 72 Hours): 0.86%
IC50 (telomerase; MCF7, 24 h): ~2490 nM
telomerase activity levels of treated groups compared to control (telomerase; MCF7, 24 hours): lower telomerase activity levels compared to control
Significance of RTA difference vs. control (telomerase; MCF7, 24 hours, 5 μM): YES (*)
Significance of RTA difference vs. control (telomerase; MCF7, 24 hours, 10 μM): YES (*)
Significance of RTA difference vs. control (telomerase; MCF7, 24 hours, 20 μM): YES (*)
Significance of RTA difference vs. control (telomerase; MCF7, 24 hours, 40 μM): YES (*)
IC50 (telomerase; MCF7, 48 h): 2230 nM
telomerase activity levels of treated groups compared to control (telomerase; MCF7, 48 hours): lower telomerase activity levels compared to control
Significance of RTA difference vs. control (telomerase; MCF7, 48 hours, 5 μM): YES (*)
Significance of RTA difference vs. control (telomerase; MCF7, 48 hours, 10 μM): YES (**)
Significance of RTA difference vs. control (telomerase; MCF7, 48 hours, 40 μM): YES (*)
IC50 (telomerase; MCF7, 72 h): 19800 nM
telomerase activity levels of treated groups compared to control (telomerase; MCF7, 72 hours): groups treated with the two highest concentrations presented further lower RTA levels
Significance of RTA difference vs. control (telomerase; MCF7, 72 hours, 40 μM): YES (**)
telomerase inhibition effect (telomerase; MCF7 breast cancer cells): exhibit a telomerase inhibition effect
